Like-named read-outs stand apart in the source and are kept apart here. Peptide text beside a SMILES is read from it. * marks the point of attachment. Cbz = O=C(OCc1ccccc1)*
Assays:
[1] = target: T1, trypsin-like activity of purified rabbit 20S proteasomes (Oryctolagus cuniculus, UniProt G1SWK8); test: biochemical
T1 sequence (G1SWK8 1-271): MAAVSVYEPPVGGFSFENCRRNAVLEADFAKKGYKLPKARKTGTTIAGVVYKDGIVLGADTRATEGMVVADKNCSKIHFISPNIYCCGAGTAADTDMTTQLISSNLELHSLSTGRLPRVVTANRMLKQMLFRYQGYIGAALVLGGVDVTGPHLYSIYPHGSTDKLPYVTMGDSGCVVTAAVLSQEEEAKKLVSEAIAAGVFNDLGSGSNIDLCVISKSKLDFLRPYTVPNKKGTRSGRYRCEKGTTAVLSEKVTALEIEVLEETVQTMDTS

HL-60/MX2 cells = test: cells; settings: for EC50: Homo sapiens, HL60/MX2, read-out: EC50 (nM) HL-60/MX2, Table 17
Source text: (§1) The DNA binding agent Mitoxantrone was included as a control, as HL-60/MX2 cells are reported to be resistant to this chemotherapeutic agent (Harker W. G. et al. 1989).

[2] = test system: LeTx-induced cytotoxicity of RAW264.7 cells; test: cells; settings: Mus musculus, RAW264.7, read-out: EC50 (nM), inhibition of RAW 264.7 cell cytotoxicity mediated by anthrax lethal toxin
HT-29 cells = test: Cell growth inhibition (resazurin, 48 hours), HT-29; assay type: cell-based; settings: Homo sapiens, HT-29
NCI-H292 cells = test: Cell growth inhibition (resazurin, 48 hours), NCI-H292; assay type: cell-based, human; settings: Homo sapiens, NCI-H292
OVCAR-3 cells = test: Cell growth inhibition (resazurin, 48 hours), OVCAR-3; assay type: cell-based, human; settings: Homo sapiens, OVCAR-3, Table 13; OVCAR-3
MDA-MB-231 cells = test: Cell growth inhibition (resazurin, 48 hours), MDA-MB-231; assay type: cell-based; settings: Homo sapiens, MDA-MB-231
[3] = test system: NF-κB-mediated luciferase activity in HEK293 NF-κB/Luc cells; test: NF-κB-mediated luciferase reporter gene assay; assay type: cell-based, human; settings: for luciferase activity upon TNF-α stimulation: pretreatment of NF-κB/Luc 293 cells
Protocol: (§2) The HEK293 NF-κB/luciferase reporter cell line is a derivative of the human embryonic kidney cell line (ATCC; CRL- 1573) and carries a luciferase reporter gene under the regulation of 5×NF-κB binding sites. […] When performing the luciferase assay, the DMEM basal medium was replaced with phenol-red free DMEM basal medium and the G418 was omitted.
For NF-κB-mediated luciferase assays, HEK293 NF-κB/luciferase cells were seeded at 1.5×10^4 cells/well in 90 μl phenol-red free DMEM complete medium into Corning 3917 white opaque-bottom tissue culture plates. […] This dilution series was further diluted 40× in appropriate culture medium and ten μl aliquots were added to the test wells in triplicate resulting in final test concentrations ranging from 1 μM to 320 pM. […] For Formula II-19, a 127 μM starting dilution was made in 100% DMSO and the final test concentrations ranging from 317 nM to 0.1 nM. […] After 1 hr pretreatment, 10 μl of a 50 ng/ml TNF-α solution, prepared in the phenol-red free DMEM medium was added, and the plates were incubated for an additional 6 hr.
NF-κB inducible luciferase activity was measured at 6 hours.
as §2, with “CRL-1573)” for “CRL- 1573)”
For NF-κB-mediated luciferase assays, HEK293 NF-κB/luciferase cells were seeded at 1.5×10^4 cells/well in 90 μl phenol-red free DMEM complete medium into Corning 3917 white opaque-bottom tissue culture plates. For Formula II-2, Formula II-4 and Formula II-5A, a 400 μM starting dilution was made in 100% DMSO and this dilution was used to generate a 8-point half log dilution series. This dilution series was further diluted 40× in appropriate culture medium and ten μl aliquots were added to the test wells in triplicate resulting in final test concentrations ranging from 1 μM to 320 pM. […] After 1 hr pretreatment, 10 μl of a 50 ng/ml TNF-α solution, prepared in the phenol-red free DMEM medium was added, and the plates were incubated for an additional 6 hr.
The relative luciferase units (RLU) were measured by using a Fusion microplate fluorometer (Packard Bioscience).

MES-SA/Dx5 cells = test: cells; settings: Homo sapiens, MES-SA/Dx5, read-out: EC50 (nM) MES-SA/Dx5, Table 16
MES-SA cells = test: Cell growth inhibition (resazurin, 48 hours), MES-SA; settings: Homo sapiens, MES-SA, read-out: EC50 (nM) MES-SA, Table 16
HL-60 cells = test: Cell growth inhibition (resazurin, 48 hours), HL-60
Source text: as §1

PC-3 cells = test: Cell growth inhibition (resazurin, 48 hours), PC-3; assay type: cell-based, human; settings: Homo sapiens, PC-3
[4] = target: T1, trypsin-like activity of purified rabbit 20S proteasomes; settings: under the conditions tested
[5] = test system: LeTx-induced cytotoxicity of RAW264.7 cells; settings: read-out: EC50 concentrations in the LeTx assay; cited from earlier work
[6] = target: PGPH (caspase-like) activity of rabbit muscle 20S proteasomes (Oryctolagus cuniculus, UniProt A0A5F9DQW2); test: Inhibition of caspase-like (PGPH) activity of 20S proteasome (Z-LLE-AMC); assay type: biochemical; settings: Table 3; mean EC50; purified rabbit 20S proteasomes
PGPH (caspase-like) activity of rabbit muscle 20S proteasomes, sequence (A0A5F9DQW2 1-212): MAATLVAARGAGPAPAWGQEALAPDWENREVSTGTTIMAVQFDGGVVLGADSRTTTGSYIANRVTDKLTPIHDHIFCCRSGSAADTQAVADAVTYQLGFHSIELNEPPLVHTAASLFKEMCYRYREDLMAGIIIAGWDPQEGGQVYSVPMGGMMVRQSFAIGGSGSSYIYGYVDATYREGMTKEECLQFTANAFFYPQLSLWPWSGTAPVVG
Protocol: A commercially available fluorogenic substrate specific for the PGPH activity was used instead of the chymotrypsin substrate supplied in the proteasome assay kit described above.
The substrate Z-LLE-AMC was prepared as a 20 mM stock solution in DMSO, stored at −20° C. The source of the proteasomes was the commercially available kit from Calbiochem (Cat. #539158). As with the chymotrypsin substrate, the proteasome can cleave Z-LLE-AMC into Z-LLE and free AMC. The activity can then be determined by measuring the fluorescence of the released AMC (λex=390 nm and λem=460 nm). The proteasomes were activated with SDS and held on ice as per manufacturer's recommendation. […] The series was diluted 20-fold with assay buffer and preincubated with the proteasomes as described for the chymotrypsin-like activity. After addition of substrate, the samples were incubated at 37° C., and release of the fluorescent AMC was monitored in a fluorimeter. All data were collected and plotted as the mean of triplicate points. […] As before, the model chosen was a sigmoidal dose-response, with a variable slope.

U266 cells = test: Cell growth inhibition (resazurin, 48 hours), U266
[7] = target: T2, chymotrypsin-like activity of rabbit muscle 20S proteasomes (Oryctolagus cuniculus, UniProt G1T4Q9); test: Inhibition of chymotrypsin-like activity of purified rabbit muscle 20S proteasome (suc-LLVY-AMC); assay type: biochemical
T2 sequence (G1T4Q9 1-263): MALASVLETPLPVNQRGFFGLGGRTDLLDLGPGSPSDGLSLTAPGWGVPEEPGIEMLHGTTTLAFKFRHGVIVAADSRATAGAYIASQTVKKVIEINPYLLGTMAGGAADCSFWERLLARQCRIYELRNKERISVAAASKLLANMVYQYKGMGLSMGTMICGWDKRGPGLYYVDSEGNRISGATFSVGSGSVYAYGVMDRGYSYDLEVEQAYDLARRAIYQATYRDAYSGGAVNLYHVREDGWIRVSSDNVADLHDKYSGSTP
Protocol: This peptide substrate is specific for the chymotrypsin-like enzyme activity of the proteasome.
Omuralide was prepared as a 10 mM stock in DMSO and stored in 5 μL aliquots at −80° C. […] The assay measures the hydrolysis of Suc-LLVY-AMC into Suc-LLVY and AMC. The released coumarin (AMC) was measured fluorometrically by using λex=390 nm and λem=460 nm. The assays were performed in a microtiter plate (Corning 3904), and followed kinetically with measurements every five minutes. The instrument used was a Thermo Lab Systems Fluoroskan, with the incubation chamber set to 37° C. The assays were performed according to the manufacturer's protocol, with the following changes. The proteasome was activated as described with SDS, and held on ice prior to the assay. […] Ten microliters of each dose were added in triplicate to the assay plate, and 190 μL of the activated proteasome was added and mixed. The samples were pre-incubated in the Fluoroskan for 5 minutes at 37° C. Substrate was added and the kinetics of AMC were followed for one hour.

RPMI 8226 cells = test: Cell growth inhibition (resazurin, 48 hours), RPMI 8226
B16-F10 cells = test: Cell growth inhibition (resazurin, 48 hours), B16-F10; assay type: cell-based, mouse; settings: Mus musculus, B16-F10, Table 13; B16-F10
Jurkat cells = test: Cytotoxicity against Jurkat cells; assay type: cell-based, human; settings: Table 5, Jurkat Cells
[8] = test system: LeTx-induced cytotoxicity of RAW264.7 cells; settings: 1 μM
[9] = Homo sapiens, HL-60, read-out: EC50 (nM) HL-60, Table 17
[10] = Homo sapiens, U-266, Table 13, U266
[11] = Table 3, mean EC50, purified rabbit 20S proteasomes, read-out: EC50 Values, Chymotrypsin-like
[12] = representative experiment, Example 44 (FIG. 46, 47), read-out: EC50, chymotrypsin-like activity of the proteasome
[13] = Homo sapiens, RPMI-8226, Table 13, RPMI 8226

SMILES: CC[C@H]1C(=O)N[C@@]2([C@@H](O)[C@@H]3C=CCCC3)C(=O)O[C@@]12C [Formula II-17]
- EC50 [1]: 588 nM
- EC50 (HL-60/MX2 cells): > 20000 nM
- EC50 [2]: 42 nM
- EC50 (HT-29 cells): > 20000 nM
- EC50 (NCI-H292 cells; NCI-H292, Table 13): > 20000 nM
- EC50 (OVCAR-3 cells): > 20000 nM
- EC50 (MDA-MB-231 cells): 5900 ± 601 nM
- luciferase activity upon TNF-α stimulation [3]: dose-dependent decrease
- EC50 (MES-SA/Dx5 cells): 9450 nM
- EC50 (MES-SA cells): 9230 nM
- EC50 (HL-60 cells; [9]): > 20000 nM
- EC50 (PC-3 cells): > 20000 nM
- inhibit the trypsin-like activity of the 20S proteasome [4]: able to inhibit

SMILES: CC(=O)N[C@@H](CSC(=O)[C@]1([C@@H](O)C(C)C)NC(=O)[C@H](C)[C@@H]1O)C(=O)O [Lactacystin]
- EC50 [5]: 3000 nM

SMILES: C[C@@]12OC(=O)[C@]1([C@@H](O)[C@H]1CCC[C@H]3O[C@@H]13)NC(=O)[C@@H]2CCCl [Formula II-5A]
- EC50 [1]: 89 nM
- EC50 [6]: 487 nM
- EC50 (U266 cells; [10]): 10 nM
- EC50 (U266 cells; Homo sapiens, U-266, read-out: U266 EC50 (nM), Table 15, mean EC50): 10 nM
- EC50 (U266 cells; Table 13, U266): 9 nM
- EC50 [2]: 3 nM
- EC50 (HT-29 cells; Table 13, read-out: EC50): 85 nM
- EC50 (NCI-H292 cells; Table 13, read-out: EC50): 90 nM
- EC50 [7, 11]: 6.5 nM
- EC50 [7, 12]: 6 nM
- EC50 (MDA-MB-231 cells; Table 13, read-out: EC50): 66 nM
- EC50 ([3]; Homo sapiens, HEK293, representative experiment, Example 43 (FIG. 44, 45), read-out: calculated EC50 to inhibit NF-κB inducible luciferase activity): 30 nM
- luciferase activity upon TNF-α stimulation [3]: dose-dependent decrease
- EC50 (RPMI 8226 cells; [13]): 36 nM
- EC50 (RPMI 8226 cells; Homo sapiens, RPMI-8226, read-out: RPMI 8226 EC50 (nM), Table 15, mean EC50): 33 nM
- EC50 (RPMI 8226 cells; Table 13, RPMI 8226): 29 nM
- EC50 (PC-3 cells; Table 13, read-out: EC50): 97 nM
- inhibit the trypsin-like activity of the 20S proteasome [4]: able to inhibit

SMILES: CC[C@H]1C(=O)N[C@@]2([C@@H](O)C3CCCCC3)C(=O)O[C@@]12C [Formula II-3]
- EC50 [1]: 6600 nM
- EC50 [6]: > 20000 nM
- EC50 (U266 cells; [10]): > 20000 nM
- EC50 (HL-60/MX2 cells): > 20000 nM
- EC50 [2]: > 330 nM
- EC50 (HT-29 cells): > 20000 nM
- EC50 (NCI-H292 cells; NCI-H292, Table 13): > 20000 nM
- EC50 [7, 11]: 927 nM
- EC50 [7, 12]: 890 nM
- EC50 (OVCAR-3 cells): > 20000 nM
- EC50 (MDA-MB-231 cells): > 20000 nM
- EC50 (MES-SA/Dx5 cells): > 20000 nM
- EC50 (MES-SA cells): > 20000 nM
- EC50 (HL-60 cells; [9]): > 20000 nM
- EC50 (RPMI 8226 cells; [13]): > 20000 nM
- EC50 (B16-F10 cells): > 20000 nM
- EC50 (PC-3 cells): > 20000 nM
- inhibit the trypsin-like activity of the 20S proteasome [4]: able to inhibit

SMILES: O=C1c2c(O)ccc(O)c2C(=O)c2c(NCCNCCO)ccc(NCCNCCO)c21 [Mitoxantrone, reference compound]
- EC50 (HL-60/MX2 cells): 1340 nM
- Fold change (HL-60/MX2 cells; Table 17, ratio of EC50 values (HL-60/MX2:HL-60)): 30.6 fold
- EC50 (HL-60 cells; [9]): 42 nM
- EC50 (HL-60 cells; read-out: EC50 (nM) HL-60, Table 17): 40 nM
- EC50 (Jurkat cells; Homo sapiens, read-out: EC50): 50 nM
- % max cell kill (Jurkat cells): 99%

SMILES: CC(C)C[C@@H](C=O)NC(=O)[C@H](CC(C)C)NC(=O)[C@H](CC(C)C)NC(=O)OCc1ccccc1 [MG132] (Cbz-Leu-Leu-Leu-aldehyde)
- EC50 [5]: 3000 nM

SMILES: CC(C)[C@H](O)[C@@]12NC(=O)[C@H](C)[C@@H]1OC2=O [Omuralide, reference compound]
- viability, compound + LeTx [8]: 37%
- EC50 ([7]; Calbiochem 20S Proteasome Kit, Example 21, read-out: average EC50 in the two assays, chymotrypsin-like activity): 52 nM
- EC50 ([7]; first experiment, Example 21, read-out: EC50, average value in the 20S proteasome assay (FIG. 27)): 49 nM
